In brackets after ≈: the same amount, converted by molar mass. Where two headings read alike, the source gives them in different places.
Assays:
[1] = tested on: S. aureus Smith; assay: In vitro antibacterial activity, MIC (standard strain); type: cell-based, Staphylococcus aureus; conditions: Staphylococcus aureus, S. aureus Smith, 10^6 cells/ml, standard strain
[2] = tested on: Streptococcus pyogenes S-8; assay: as above; type: cell-based; conditions: S8; Streptococcus pyogenes S-8; 10^6 cells/ml; standard strain; read-out: MIC
[3] = tested on: S. pneumoniae IID 552; assay: as above; type: cell-based; conditions: Streptococcus pneumoniae, IID552; S. pneumoniae IID 552; 10^6 cells/ml; standard strain; read-out: MIC
[4] = tested on: Escherichia coli NIHJ JC-2; assay: as above; type: cell-based; conditions: Escherichia coli, NIHJJC2, Escherichia coli NIHJ JC-2; 10^6 cells/ml; standard strain; read-out: MIC
[5] = tested on: E. coli ATCC 10536; assay: as above; type: cell-based; conditions: Escherichia coli, ATCC10536
[6] = tested on: E. coli ML 4707; assay: as above; type: cell-based; conditions: Escherichia coli, ML4707; E. coli ML 4707; 10^6 cells/ml; standard strain; read-out: MIC
[7] = tested on: Proteus vulgaris IFO 3167; assay: as above; type: cell-based; conditions: IFO3167
[8] = tested on: Morganella morganii IID 602; assay: as above; type: cell-based; conditions: IID602; Morganella morganii IID 602; 10^6 cells/ml; standard strain; read-out: MIC
[9] = tested on: Enterobacter cloacae IID 977; assay: as above; type: cell-based; conditions: Enterobacter cloacae, IID977, Enterobacter cloacae IID 977; 10^6 cells/ml; standard strain; read-out: MIC
[10] = tested on: Klebsiella pneumoniae KY(GN)6445; assay: as above; type: cell-based; conditions: Klebsiella pneumoniae KY(GN)6445; 10^6 cells/ml; standard strain; read-out: MIC
[11] = tested on: Salmonella entritidis IID 604; assay: as above; type: cell-based; conditions: IID604; Salmonella entritidis IID 604; 10^6 cells/ml; standard strain; read-out: MIC
[12] = tested on: Serratia marcescens IID 618; assay: as above; type: cell-based; conditions: Serratia marcescens, IID618, Serratia marcescens IID 618; 10^6 cells/ml; standard strain; read-out: MIC
[13] = tested on: S. marcescens GN 7577; assay: as above; type: cell-based; conditions: Serratia marcescens, GN7577; S. marcescens GN 7577; 10^6 cells/ml; standard strain; read-out: MIC
[14] = tested on: P. aeruginosa IFO 12689; assay: as above; type: cell-based, Pseudomonas aeruginosa; conditions: Pseudomonas aeruginosa, IFO12689; P. aeruginosa IFO 12689; 10^6 cells/ml; standard strain; read-out: MIC
[15] = tested on: P. aeruginosa IID 1210; assay: as above; type: cell-based; conditions: Pseudomonas aeruginosa, IID1210; P. aeruginosa IID 1210; 10^6 cells/ml; standard strain; read-out: MIC
[16] = tested on: Acinetobacter anitratus IID 876; assay: as above; type: cell-based; conditions: Acinetobacter calcoaceticus, IID876, Acinetobacter anitratus IID 876; 10^6 cells/ml; standard strain; read-out: MIC
[17] = tested on: B. fragilis 0558; assay: as above; type: cell-based, Bacteroides fragilis; conditions: Bacteroides fragilis, 0558, B. fragilis 0558; 10^6 cells/ml; standard strain; read-out: MIC
[18] = tested on: Fusobacterium varium KYA 8501; assay: as above; type: cell-based; conditions: Fusobacterium varium, KYA8501, Fusobacterium varium KYA 8501; 10^6 cells/ml; standard strain; read-out: MIC
[19] = tested on: Clostridium perfringens KYA 13123; assay: microbe, parasite or virus in culture; type: cell-based; conditions: KYA13123
[20] = tested on: C. ramosum; assay: In vitro antibacterial activity, MIC (standard strain); type: cell-based; conditions: Thomasclavelia ramosa; C. ramosum; 10^6 cells/ml; standard strain; read-out: MIC
[21] = tested on: S. pneumoniae 15; assay: In vitro antibacterial activity, MIC (clinical isolates); type: cell-based; conditions: Streptococcus pneumoniae; S. pneumoniae 15; 10^6 cells/ml; clinical isolate; read-out: MIC
[22] = tested on: S. pyogenes 3130; assay: as above; type: cell-based; conditions: Streptococcus pyogenes, read-out: MIC
[23] = tested on: S. pyogenes 3102; assay: as above; type: cell-based; conditions: Streptococcus pyogenes; S. pyogenes 3102; 10^6 cells/ml; clinical isolate; read-out: MIC
[24] = tested on: S. pyogenes 3107; assay: as above; type: cell-based; conditions: Streptococcus pyogenes; S. pyogenes 3107; 10^6 cells/ml; clinical isolate; read-out: MIC
[25] = tested on: S. agalactiae 4049; assay: as above; type: cell-based; conditions: Streptococcus agalactiae; S. agalactiae 4049; 10^6 cells/ml; clinical isolate; read-out: MIC
[26] = tested on: S. agalactiae 4470; assay: as above; type: cell-based; conditions: Streptococcus agalactiae; S. agalactiae 4470; 10^6 cells/ml; clinical isolate; read-out: MIC
[27] = tested on: S. agalactiae 4368; assay: as above; type: cell-based; conditions: Streptococcus agalactiae; S. agalactiae 4368; 10^6 cells/ml; clinical isolate; read-out: MIC
[28] = tested on: S. agalactiae 4468; assay: as above; type: cell-based; conditions: Streptococcus agalactiae; S. agalactiae 4468; 10^6 cells/ml; clinical isolate; read-out: MIC
[29] = tested on: S. faecalis 49; assay: as above; type: cell-based; conditions: Enterococcus faecalis; S. faecalis 49; 10^6 cells/ml; clinical isolate; read-out: MIC
[30] = tested on: S. faecalis 214; assay: as above; type: cell-based; conditions: Enterococcus faecalis; S. faecalis 214; 10^6 cells/ml; clinical isolate; read-out: MIC
[31] = tested on: S. faecalis 402; assay: as above; type: cell-based; conditions: Enterococcus faecalis; S. faecalis 402; 10^6 cells/ml; clinical isolate; read-out: MIC

| SMILES | MIC [2] [µg/mL] | MIC [3] [µg/mL] | MIC [4] [µg/mL] | MIC [6] [µg/mL] | MIC [8] [µg/mL] | MIC [9] [µg/mL] | MIC [10] [µg/mL] | MIC [11] [µg/mL] | MIC [12] [µg/mL] | MIC [13] [µg/mL] | MIC [14] [µg/mL] | MIC [15] [µg/mL] | MIC [16] [µg/mL] | MIC [17] [µg/mL] | MIC [18] [µg/mL] | MIC [19] [µg/mL] | MIC [20] [µg/mL] | MIC [21] [µg/mL] | MIC [22] [µg/mL] | MIC [23] [µg/mL] | further results |
| --- | --- | --- | --- | --- | --- | --- | --- | --- | --- | --- | --- | --- | --- | --- | --- | --- | --- | --- | --- | --- | --- |
| NCC1CCN(c2c(F)cc3c(=O)c(C(=O)O)cn(C4CC4)c3c2Br)C1 (stereo not drawn) [Example 15, 7-(3-Aminomethyl-l-pyrrolidinyl)-8-bromo-l-cyclopropyl-6-fluoro-1,4-dihydro-4-oxo-3-quinolinecarboxylic acid] | 0.05 (≈ 0.118 µM) | 0.05 (≈ 0.118 µM) | ≤ 0.0063 | 0.025 (≈ 0.0589 µM) | 0.1 (≈ 0.236 µM) | 0.05 (≈ 0.118 µM) | 0.025 (≈ 0.0589 µM) | 0.025 (≈ 0.0589 µM) | 0.1 (≈ 0.236 µM) | 0.78 (≈ 1.84 µM) | 0.78 (≈ 1.84 µM) | 0.78 (≈ 1.84 µM) | 0.05 (≈ 0.118 µM) | ≤ 0.05 | 0.39 (≈ 0.919 µM) | 0.1 (≈ 0.236 µM) | 0.39 (≈ 0.919 µM) | 0.05 (≈ 0.118 µM) | 0.05 (≈ 0.118 µM) | 0.05 (≈ 0.118 µM) | MIC [1]: 0.0125 µg/mL (≈ 0.0295 µM); MIC [5]: 0.0125 µg/mL (≈ 0.0295 µM); MIC ([7]; Proteus vulgaris): 0.0125 µg/mL (≈ 0.0295 µM); MIC [24]: 0.05 µg/mL (≈ 0.118 µM); MIC [25]: 0.05 µg/mL (≈ 0.118 µM); MIC [26]: 0.05 µg/mL (≈ 0.118 µM); MIC [27]: 0.05 µg/mL (≈ 0.118 µM); MIC [28]: 0.05 µg/mL (≈ 0.118 µM); MIC [29]: 0.2 µg/mL (≈ 0.471 µM); MIC [30]: 0.2 µg/mL (≈ 0.471 µM); MIC [31]: 0.2 µg/mL (≈ 0.471 µM) |
| CNCC1CCN(c2c(F)cc3c(=O)c(C(=O)O)cn(C4CC4)c3c2Br)C1 (stereo not drawn) [Example 16, 8-Bromo-1-cyclopropyl-6-fluoro-1,4-dihydro-7-(3-methylaminomethyl-l-pyrrolidinyl)-4-oxo-3-quinolinecarboxylic acid] | 0.05 (≈ 0.114 µM) | 0.05 (≈ 0.114 µM) | 0.0125 (≈ 0.0285 µM) | 0.025 (≈ 0.057 µM) | 0.1 (≈ 0.228 µM) | 0.1 (≈ 0.228 µM) | 0.05 (≈ 0.114 µM) | 0.05 (≈ 0.114 µM) | 0.1 (≈ 0.228 µM) | 0.78 (≈ 1.78 µM) | 1.56 (≈ 3.56 µM) | 1.56 (≈ 3.56 µM) | 0.05 (≈ 0.114 µM) | 0.1 (≈ 0.228 µM) | 0.39 (≈ 0.89 µM) | 0.1 (≈ 0.228 µM) | 0.39 (≈ 0.89 µM) | 0.05 (≈ 0.114 µM) | 0.05 (≈ 0.114 µM) | 0.05 (≈ 0.114 µM) | MIC ([1]; read-out: MIC): 0.0125 µg/mL (≈ 0.0285 µM); MIC ([5]; E. coli ATCC 10536, 10^6 cells/ml, standard strain, read-out: MIC): 0.025 µg/mL (≈ 0.057 µM); MIC ([7]; Proteus vulgaris IFO 3167, 10^6 cells/ml, standard strain, read-out: MIC): 0.025 µg/mL (≈ 0.057 µM); MIC [24]: 0.05 µg/mL (≈ 0.114 µM); MIC [25]: 0.05 µg/mL (≈ 0.114 µM); MIC [26]: 0.05 µg/mL (≈ 0.114 µM); MIC [27]: 0.05 µg/mL (≈ 0.114 µM); MIC [28]: 0.05 µg/mL (≈ 0.114 µM); MIC [29]: 0.1 µg/mL (≈ 0.228 µM); MIC [30]: 0.1 µg/mL (≈ 0.228 µM); MIC [31]: 0.1 µg/mL (≈ 0.228 µM) |
